Data taken from ChEMBL document CHEMBL1201862, “PubChem BioAssay data set” (2004).
The source made the active and inactive calls.

Assays:
[1] = target: T1, Carboxy-terminal domain RNA polymerase II polypeptide A small phosphatase 1 (Homo sapiens, UniProt Q9GZU7); assay: CTDSP1 inhibitors, concentration-response, biochemical, absorbance readout, ultra-high-throughput screen actives (AID 540297); format: functional
T1 sequence (Q9GZU7 whole entry): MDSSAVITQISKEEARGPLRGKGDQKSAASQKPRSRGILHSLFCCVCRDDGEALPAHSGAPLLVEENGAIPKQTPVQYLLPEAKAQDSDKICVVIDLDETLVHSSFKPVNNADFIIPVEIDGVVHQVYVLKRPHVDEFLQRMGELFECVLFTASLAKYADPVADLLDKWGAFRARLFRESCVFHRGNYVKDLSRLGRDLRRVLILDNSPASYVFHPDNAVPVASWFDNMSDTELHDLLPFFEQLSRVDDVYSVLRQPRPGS

[2] = target: T2, Probable nicotinate-nucleotide adenylyltransferase (Staphylococcus aureus (strain N315), UniProt P65502); format: functional, Staphylococcus aureus subsp. aureus N315;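 on IC50 Mean: confirmatory dose-response retesting of NadD inhibitor hits first found in an ultra-high-throughput screen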
T2 sequence (P65502 whole entry): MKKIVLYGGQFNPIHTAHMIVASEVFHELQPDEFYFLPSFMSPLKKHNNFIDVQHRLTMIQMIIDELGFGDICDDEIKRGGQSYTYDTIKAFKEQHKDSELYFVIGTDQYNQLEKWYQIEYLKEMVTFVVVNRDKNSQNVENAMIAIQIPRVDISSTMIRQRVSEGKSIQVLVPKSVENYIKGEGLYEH

[3] = target: T2, Probable nicotinate-nucleotide adenylyltransferase; format: functional, Staphylococcus aureus subsp. aureus N315; settings: read-out: IC50_Mean
Albumin = Albumin (Bos taurus, UniProt P02769); assay: Counterscreen for inhibitors of T-cell receptor (TCR)-CD3 interaction: Fluorescence-based biochemical high throughput dose response assay to identify inhibitors of T-cell receptor (TCR)-CD3 interaction using a TAMRA-labeled BSA probe.; format: functional
Chain of Albumin (P02769 whole entry): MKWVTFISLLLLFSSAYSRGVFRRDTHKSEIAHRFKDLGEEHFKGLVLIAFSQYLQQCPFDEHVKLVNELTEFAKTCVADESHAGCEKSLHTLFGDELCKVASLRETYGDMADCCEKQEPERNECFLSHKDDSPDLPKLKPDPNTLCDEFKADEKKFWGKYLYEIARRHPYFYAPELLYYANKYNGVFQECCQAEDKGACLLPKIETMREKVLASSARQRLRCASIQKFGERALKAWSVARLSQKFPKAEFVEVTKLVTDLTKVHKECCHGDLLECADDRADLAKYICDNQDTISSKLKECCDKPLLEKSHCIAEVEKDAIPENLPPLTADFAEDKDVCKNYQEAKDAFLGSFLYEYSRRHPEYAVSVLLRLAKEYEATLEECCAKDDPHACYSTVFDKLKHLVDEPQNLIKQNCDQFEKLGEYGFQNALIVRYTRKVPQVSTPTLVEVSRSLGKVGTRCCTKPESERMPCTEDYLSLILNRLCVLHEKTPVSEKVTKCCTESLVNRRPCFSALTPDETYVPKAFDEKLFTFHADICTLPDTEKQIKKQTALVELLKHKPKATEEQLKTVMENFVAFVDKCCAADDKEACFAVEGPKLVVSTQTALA

[4] = activation of miR-122 Renilla sensor silencing – cell-based, Huh7 psiCHECK-miR122, Renilla luciferase, cherry-picked, dose response (AID 651956); format: functional;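 further: huh7 hepatoma cells stably carrying a psiCHECK-2 miR-122 sensor plasmid; renilla luciferase signal reporting endogenous miR-122 activity after 48 h compound exposure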
[5] = A549 cell cytotoxicity, dose response, cytotoxicity control, plate reader, cherry-pick, antagonist series (AID 743412); format: functional, cell-based
[6] = toxicity toward HepG2 liver cells – cell-based, plate reader, cherry-pick, antagonist series, cytotoxicity control, dose response (AID 743416); format: functional
[7] = blockers of bursicon-stimulated LGR2 cAMP reporter – cell-based, HEK293, CRE-luciferase reporter, cherry pick, set 2, dose response (AID 743343); format: functional;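 further: transfected cells were stimulated with diluted bursicon conditioned medium after compound addition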
[8] = general mammalian cell viability loss – activator set, cherry-pick, cytotoxicity control for miR-122 modulator project, dose response (AID 720690); format: functional, cell-based;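 further: HEK293T human cells scored for general mammalian cytotoxicity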
[9] = blockade of melanocortin 4 receptor signaling – cell-based, plate reader, cherry pick, counter-screen for LGR2 antagonist project, dose response (AID 743444); format: functional;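 further: transfected HEK 293 cells stimulated with alpha-MSH peptide; potency of inhibitors of the alpha-MSH evoked signal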
[10] = viability loss in HEK293 cells – cell-based, plate reader, cherry-picked samples, cytotoxicity control, dose response (AID 743446); format: functional
[11] = target: T3, Disintegrin and metalloproteinase domain-containing protein 17 (Homo sapiens, UniProt P78536); assay: exosite inhibitors of ADAM17, dose response, biochemical (AID 743260)
T3 sequence (P78536 whole entry, the tested form may be a part): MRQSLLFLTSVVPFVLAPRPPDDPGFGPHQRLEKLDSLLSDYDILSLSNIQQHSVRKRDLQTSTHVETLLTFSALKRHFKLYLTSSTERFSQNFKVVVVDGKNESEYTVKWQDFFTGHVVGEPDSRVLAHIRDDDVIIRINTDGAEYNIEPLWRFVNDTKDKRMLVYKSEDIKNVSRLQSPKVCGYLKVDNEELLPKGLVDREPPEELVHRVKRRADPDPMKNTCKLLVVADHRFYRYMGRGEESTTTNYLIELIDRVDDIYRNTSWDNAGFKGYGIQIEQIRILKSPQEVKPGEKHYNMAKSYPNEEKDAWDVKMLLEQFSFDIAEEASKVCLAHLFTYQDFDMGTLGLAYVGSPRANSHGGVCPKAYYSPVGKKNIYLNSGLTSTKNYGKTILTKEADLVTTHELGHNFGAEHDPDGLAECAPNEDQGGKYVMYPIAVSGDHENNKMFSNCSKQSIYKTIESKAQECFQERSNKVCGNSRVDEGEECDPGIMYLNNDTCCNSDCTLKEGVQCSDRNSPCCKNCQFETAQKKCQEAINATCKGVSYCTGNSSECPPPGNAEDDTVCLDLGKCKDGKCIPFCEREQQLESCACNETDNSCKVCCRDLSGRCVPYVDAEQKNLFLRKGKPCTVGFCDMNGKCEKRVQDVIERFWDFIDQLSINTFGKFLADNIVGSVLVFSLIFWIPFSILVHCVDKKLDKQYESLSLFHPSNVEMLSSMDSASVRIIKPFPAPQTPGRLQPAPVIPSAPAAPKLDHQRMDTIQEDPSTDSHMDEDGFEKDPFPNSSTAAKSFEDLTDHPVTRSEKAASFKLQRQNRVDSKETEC

[12] = inhibition of ADAM10 peptide cleavage – biochemical, FRET peptide substrate, recombinant human ADAM10, selectivity assay for ADAM17 exosite inhibitor project, dose response (AID 743259);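 further: ADAM10 enzyme cleaving a FRET peptide substrate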
[13] = Luminescence-based cell-based high throughput dose response assay to identify activators of the DAF-12 from the parasite S. stercoralis (ssDAF-12).; format: functional
[14] = target: T4, Oxysterols receptor LXR-beta (Homo sapiens, UniProt P55055); assay: LXR agonists, Gal4 luciferase reporter, dose response, counter-screen for ssDAF-12 agonist project, cell-based, luminescence, HEK293, S. stercoralis campaign (AID 720737); format: functional; settings: read-out: IC50 (the source's name)
T4 sequence (P55055 whole entry): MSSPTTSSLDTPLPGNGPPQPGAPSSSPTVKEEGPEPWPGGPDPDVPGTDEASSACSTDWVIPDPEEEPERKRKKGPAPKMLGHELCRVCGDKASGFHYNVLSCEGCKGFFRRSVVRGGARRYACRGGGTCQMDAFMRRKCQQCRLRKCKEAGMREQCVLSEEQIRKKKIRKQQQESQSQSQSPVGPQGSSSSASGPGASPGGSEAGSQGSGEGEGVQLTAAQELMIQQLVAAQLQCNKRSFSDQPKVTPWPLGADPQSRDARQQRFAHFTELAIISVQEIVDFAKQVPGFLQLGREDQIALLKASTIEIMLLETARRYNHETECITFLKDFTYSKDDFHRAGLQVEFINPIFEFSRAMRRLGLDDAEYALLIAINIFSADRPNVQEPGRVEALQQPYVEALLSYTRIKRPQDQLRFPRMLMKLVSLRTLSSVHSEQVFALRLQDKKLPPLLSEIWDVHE

Paired box protein Pax-8 = Paired box protein Pax-8 (Homo sapiens, UniProt Q06710); assay: PAX8 transcriptional activity inhibition in RMG-I – RMG-I cells, luciferase, cherry-pick, dose response (AID 687027); format: functional, cell-based;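 further: luciferase reporter driven by Pax8 target thyroperoxidase promoter measured by SteadyGlo luminescence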
Chain of Paired box protein Pax-8 (Q06710 whole entry): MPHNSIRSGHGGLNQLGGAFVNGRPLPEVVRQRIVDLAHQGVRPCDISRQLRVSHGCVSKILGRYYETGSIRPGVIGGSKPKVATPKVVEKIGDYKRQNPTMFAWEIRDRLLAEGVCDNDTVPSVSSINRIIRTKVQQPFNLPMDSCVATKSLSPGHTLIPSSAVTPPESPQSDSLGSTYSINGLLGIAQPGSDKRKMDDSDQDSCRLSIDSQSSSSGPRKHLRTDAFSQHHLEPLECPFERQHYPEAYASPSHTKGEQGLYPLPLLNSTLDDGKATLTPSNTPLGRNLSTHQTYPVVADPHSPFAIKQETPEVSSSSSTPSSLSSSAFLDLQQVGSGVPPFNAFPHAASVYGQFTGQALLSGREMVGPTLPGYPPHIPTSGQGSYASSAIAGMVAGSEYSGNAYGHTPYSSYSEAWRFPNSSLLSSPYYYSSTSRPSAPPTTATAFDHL

[15] = A2780 cell killing – plate reader, dry powder samples, cytotoxicity control, dose response (AID 743046); format: functional, cell-based
[16] = OVCAR-3 cell viability loss – plate reader, dry powder samples, PAX8 inhibitor project, dose response (AID 743044); format: functional, cell-based
HeLa = assay: viability loss in HeLa cells – cell-based, ATP luminescence, cherry-pick samples, cytotoxicity control, dose response (AID 687004); format: functional; settings: Homo sapiens
[17] = potency of ADAM10 substrate cleavage blockers – biochemical, QFRET, dose response (AID 743254);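 further: ADAM10 enzyme with the DM2 quenched FRET peptide as substrate; EDANS fluorescence gain as the protease cuts the substrate; inhibitor potency against ADAM10 proteolytic activity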
[18] = target: T3, Disintegrin and metalloproteinase domain-containing protein 17; assay: inhibition of ADAM17 substrate cleavage – biochemical, quenched FRET substrate, counter-screen for ADAM10 exosite inhibitor project, dose response (AID 743253)
[19] = T. cruzi growth inhibition in host cells, dose response, cell-based, plate reader, dry powder, set 2 (AID 652275); format: functional
[20] = target: Endoplasmic reticulum aminopeptidase 1 (Homo sapiens, UniProt Q9NZ08); assay: inhibition of human ERAP1 enzyme activity – biochemical, cherry-pick, set 2, plate reader, dose response (AID 743314)
Chain of Endoplasmic reticulum aminopeptidase 1 (Q9NZ08 whole entry): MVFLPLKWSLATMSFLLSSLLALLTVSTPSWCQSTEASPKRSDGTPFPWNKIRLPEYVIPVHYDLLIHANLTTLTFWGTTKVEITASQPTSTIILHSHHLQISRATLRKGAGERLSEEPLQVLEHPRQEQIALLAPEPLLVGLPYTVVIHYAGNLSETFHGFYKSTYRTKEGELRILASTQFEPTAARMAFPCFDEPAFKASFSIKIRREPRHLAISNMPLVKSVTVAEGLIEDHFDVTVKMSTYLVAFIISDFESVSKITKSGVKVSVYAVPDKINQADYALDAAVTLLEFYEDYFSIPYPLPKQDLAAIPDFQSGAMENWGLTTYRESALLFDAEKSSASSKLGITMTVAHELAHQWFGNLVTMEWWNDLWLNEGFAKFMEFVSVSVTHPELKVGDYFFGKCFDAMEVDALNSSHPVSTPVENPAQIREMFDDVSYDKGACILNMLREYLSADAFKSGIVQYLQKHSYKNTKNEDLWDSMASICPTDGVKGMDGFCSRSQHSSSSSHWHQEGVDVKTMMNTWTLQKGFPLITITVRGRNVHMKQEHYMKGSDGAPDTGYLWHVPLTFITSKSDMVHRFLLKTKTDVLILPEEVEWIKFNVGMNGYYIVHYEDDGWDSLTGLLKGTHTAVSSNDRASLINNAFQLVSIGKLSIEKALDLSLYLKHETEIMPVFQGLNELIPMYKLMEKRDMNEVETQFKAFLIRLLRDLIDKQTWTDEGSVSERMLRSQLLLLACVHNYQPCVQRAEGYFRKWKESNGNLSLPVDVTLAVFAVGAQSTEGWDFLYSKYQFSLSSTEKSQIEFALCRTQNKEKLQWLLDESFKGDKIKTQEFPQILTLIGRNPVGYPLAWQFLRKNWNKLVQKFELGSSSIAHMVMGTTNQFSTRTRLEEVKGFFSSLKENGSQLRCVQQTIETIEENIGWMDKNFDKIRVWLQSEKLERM

[21] = HIV-1 Vif–A3G interaction blockers – biochemical, TR-FRET, GST-Vif 1-94, biotin-A3G peptide, dose response retest, primary screen (AID 1117319); format: functional;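 further: TR-FRET signal of purified GST-Vif binding a biotinylated A3G peptide; inhibitors lower the FRET signal by blocking Vif and A3G binding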
[22] = P. falciparum Dd2 growth inhibitors, dose response, SYBR Green, cherry-picked samples (AID 1159567); format: functional, cell-based
[23] = toxicity to human hepatoma HepG2 cells – cell-based, cherry-picked samples, cytotoxicity control, dose response (AID 1159577); format: functional
[24] = target: RNA-editing ligase 1, mitochondrial (Trypanosoma brucei brucei, UniProt P86926); assay: inhibition of trypanosome RNA editing ligase – biochemical, fluorescence, Trypanosoma brucei, dose response (AID 1117295); format: functional
Chain of RNA-editing ligase 1, mitochondrial (P86926 whole entry): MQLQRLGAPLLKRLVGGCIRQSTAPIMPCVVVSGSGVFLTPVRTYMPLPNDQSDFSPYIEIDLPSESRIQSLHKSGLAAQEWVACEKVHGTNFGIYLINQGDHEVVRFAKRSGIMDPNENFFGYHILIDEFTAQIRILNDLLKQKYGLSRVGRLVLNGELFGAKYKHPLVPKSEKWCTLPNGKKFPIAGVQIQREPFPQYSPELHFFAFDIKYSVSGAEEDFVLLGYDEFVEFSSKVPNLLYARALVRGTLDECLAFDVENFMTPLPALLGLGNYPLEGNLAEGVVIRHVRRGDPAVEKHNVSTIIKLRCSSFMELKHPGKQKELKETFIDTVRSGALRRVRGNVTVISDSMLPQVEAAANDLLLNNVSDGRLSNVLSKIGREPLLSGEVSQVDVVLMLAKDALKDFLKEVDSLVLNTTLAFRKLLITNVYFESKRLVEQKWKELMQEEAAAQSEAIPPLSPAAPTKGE

[25] = CellTiter-Glo luminescence survival assay, SW480 colon tumor line, concentration-response curve, half-maximal inhibitory concentration (AID 1117338); format: functional
[26] = RKO cell viability reduction, dose response, CellTiter-Glo luminescence (AID 1117322); format: functional
[27] = cytotoxicity toward HCT116 cells – cell-based, CellTiter-Glo luminescence, IC50, dose response (AID 1117332); format: functional; settings: HCT-116
[28] = SNU-C1 cell viability reduction, dose response, CellTiter-Glo luminescence (AID 1117323); format: functional, cell-based
[29] = cytotoxicity toward Colo320 cells – cell-based, CellTiter-Glo luminescence, IC50, dose response (AID 1117334); format: functional; settings: COLO 320
[30] = cytotoxicity toward HT-29 cells – cell-based, CellTiter-Glo luminescence, IC50, dose response (AID 1117330); format: functional
[31] = Reduced DLD-1 viability, concentration-response, CellTiter-Glo luminescence (AID 1117352); format: functional
[32] = HCT116 cell viability decrease, GSK3B pretreatment – CellTiter-Glo, IC50, dose response (AID 1117339); format: functional; settings: HCT-116

## CN(CCC#N)C(=O)COC(=O)c1c2c(nc3ccccc13)/C(=C\c1ccco1)CC2
[1]
  IC50: 3.2 µM (active)
[2]
  IC50: 9.77 µM (active)
[3]
  IC50: 18 µM (active)
Albumin
  IC50: > 94.1 µM (inactive)

## C[C@H](CO)N1C[C@H](C)[C@H](CN(C)C(=O)Nc2cccc3ccccc23)Oc2ncc(C#Cc3ccc(C(F)(F)F)cc3)cc2C1=O
[4]
  AC50: 13.9 µM (active)
[5]
  AC50: 21.3 µM (active)
[6]
  AC50: 23.1 µM (active)
[7]
  AC50: 41.1 µM (active)
[8]
  AC50: 25.9 µM (active)
[9]
  AC50: 21.7 µM (active)
[10]
  AC50: 41.4 µM (active)

## N#Cc1cccc(NC(=O)c2cc(C3CCCCN3S(=O)(=O)c3ccccc3)on2)c1 (stereo unspecified)
[11]
  IC50: > 69.5 µM (inactive)
[12]
  IC50: > 69.5 µM (inactive)

## CNc1cncc(-c2ccc(OC)c(OC)c2)n1
[13]
  IC50: > 67.6 µM (inactive)
[14]
  EC50: > 67.6 µM (inactive)

## Cc1ccc(S(=O)(=O)Nc2ccc3c(c2)C(=O)N([C@H](C)CO)C[C@@H](C)[C@@H](CN(C)Cc2ccc4c(c2)OCO4)OCCCC[C@@H](C)O3)cc1
Paired box protein Pax-8
  AC50: 21 µM (active)
[15]
  AC50: < 0.26 µM (active)
[16]
  AC50: 29.1 µM (active)

## CN1C(=O)c2cc(NC(=O)Nc3ccc(Cl)cc3)ccc2OC[C@H]2O[C@@H](CC(=O)NCCN3CCCCC3)CC[C@@H]21
HeLa
  AC50: 22.7 µM (active)

## C[C@H]1CN([C@@H](C)CO)C(=O)c2cc(NC(=O)Nc3ccc(F)cc3)ccc2O[C@@H]1CN(C)S(C)(=O)=O
HeLa
  AC50: 1.16 µM (active)

## O=C(CSc1nnc(Cc2cccs2)n1-c1ccc(Cl)cc1)Nc1ccc(OCc2ccccc2)cc1
[17]
  IC50: > 69.5 µM (inactive)
[18]
  IC50: > 69.5 µM (inactive)

## CC(C)(C)[S@+]([O-])N1Cc2cc(C(=O)NCc3ccc4c(c3)OCO4)nc(-c3cccc(-c4cccnc4)c3)c2[C@@H]1CCO
[19]
  AC50: 1.14 µM (active)

## O=C(NCC1CC1)[C@H]1[C@H](CO)[C@H]2Cn3c(ccc(/C=C/c4ccccc4)c3=O)[C@@H]1N2C(=O)C1CC1
[20]
  AC50: 7.13 µM (active)

## CCN(CC)CCN/C=C1\C(=O)CNC1=O
[21]
  IC50: > 100 µM (active)

## COc1ccc(C#Cc2ccc([C@@H]3[C@H](CO)N4CCCCN(C(=O)Cc5ccccc5)C[C@@H]34)cc2)cc1
[22]
  AC50: 1.42 µM (active)
[23]
  AC50: 7.73 µM (active)

## COCCCNC(=O)C1CCN(S(=O)(=O)c2ccc3[nH]c(=O)oc3c2)CC1
[24]
  IC50: 42.4 µM (inactive)

## CC(C)=CCCC(C)=CCCC(C)=CCCC=C(C)CCC=C(C)CCC=C(C)C
[25]
  IC50: > 20 µM (inactive)
[26]
  IC50: > 20 µM (inactive)
[27]
  IC50: > 20 µM (inactive)
[28]
  IC50: > 20 µM (inactive)
[29]
  IC50: > 20 µM (inactive)
[30]
  IC50: > 20 µM (inactive)
[31]
  IC50: > 20 µM (inactive)
[32]
  IC50: > 20 µM (inactive)
